As usually defined, the IC50 is the concentration needed to halve the response being measured.

The record followed here is ChEMBL document CHEMBL1240304, “Host sphingolipid biosynthesis as a target for hepatitis C virus therapy” (Nat Chem Biol, 2005).

A short description of data set [1]: Cytotoxicity against human Huh-7/3-1 cells assessed as cell viability at 0.1 to 11 uM after 72 hrs by WST-8 assay. It is filed as cell-based.
For data set [2], the system named is Hepatitis C virus. Description: Binding affinity at HCV NS5B at 1 nmol by ELISA. The settings on record: Hepacivirus hominis; Con1. For orientation: An ELISA detects its analyte on a solid surface through an enzyme-linked reagent.
Data set [3] has as its system Hepatitis C virus. Description: Antiviral activity against Hepatitis C virus (isolate Con1) genotype 1b in human Huh-7/3-1 cells assessed as reduction in NS3 protein level at 1 uM by Western blot analysis in presence of 5 uM C2-ceramide. It is filed as functional, organism-based. Conditions: Hepacivirus hominis.
Data set [4] concerns Hepatitis C virus. Description: microbe, parasite or virus in culture. Conditions: isolate Con1, Huh-7, 72 h.
Description: Antiviral activity against Hepatitis C virus (isolate Con1) genotype 1b in human Huh-7/3-1 cells assessed as inhibition of HCV replication after 72 hrs by luciferase assay
A further data set is filed under the species Homo sapiens. The data set can be described thus: Effect on Caveolin-2 localization in human Huh-7/3-1 replicon golgi-derived detergent-resistant membrane at 1 uM after 72 hrs by immunoblotting analysis. It is filed as functional. (In antiviral work, replicon cells carry a viral genome segment that copies itself.)
Data set [5] concerns Hepatitis C virus. The data set can be described thus: Relocation of NS5B in human Huh-7/3-1 Hepatitis C virus (isolate Con1) genotype 1b replicon cells using golgi-derived detergent-resistant membrane at 10 nM after 72 hrs by immunoblotting analysis. Conditions: Hepacivirus hominis. It is filed as functional, organism-based.
Data set [6] is described as follows: Cytotoxicity against human Huh-7/3-1 cells assessed as cell viability at 0.1 to 100 uM after 72 hrs by WST-8 assay. It is filed as cell-based. For orientation: Formazan colour is commonly taken as a measure of viable cells.
Data set [7] concerns Hepatitis C virus. Description: Antiviral activity against Hepatitis C virus (isolate Con1) genotype 1b in human Huh-7/3-1 cells assessed as reduction in NS3 protein level at 100 nM by Western blot analysis. It is filed as functional, organism-based. Conditions: Hepacivirus hominis, TDE = time-dependent effect.
Data set [8] deals with Hepatitis C virus. The data set can be described thus: Antiviral activity against Hepatitis C virus (isolate Con1) genotype 1b in human Huh-7/3-1 cells assessed as reduction in NS5B protein level at 100 nM by Western blot analysis. It is filed as functional, organism-based. The settings on record: Hepacivirus hominis, TDE = time-dependent effect.
Data set [9] relates to Hepatitis C virus. Description: microbe, parasite or virus in culture. The settings on record: isolate Con1, Huh-7.
Description: Antiviral activity against Hepatitis C virus (isolate Con1) genotype 1b in human Huh-7/3-1 cells assessed as inhibition of SPT activity in presence of 3 uM sphinganine
The test system of data set [10] is Hepatitis C virus. The data set can be described thus: Antiviral activity against Hepatitis C virus (isolate Con1) genotype 1b in human Huh-7/3-1 cells assessed as reduction in NS5B protein level in golgi-derived detergent-resistant membrane at 1 uM after 72 hrs by immunoblotting analysis. It is filed as functional, organism-based. The settings on record: Hepacivirus hominis.

For data set [11], the system named is Hepatitis C virus. The data set can be described thus: Antiviral activity against Hepatitis C virus (isolate Con1) genotype 1b in human Huh-7/3-1 cells assessed as reduction in NS3 protein level in golgi-derived detergent-resistant membrane at 1 uM after 72 hrs by immunoblotting analysis. It is filed as functional, organism-based. The settings on record: Hepacivirus hominis.

Data set [12] has as its system Hepatitis C virus. Description: Antiviral activity against Hepatitis C virus (isolate Con1) genotype 1b in human Huh-7/3-1 cells assessed as reduction in NS5A protein level at 100 nM by Western blot analysis. It is filed as functional, organism-based. Conditions: Hepacivirus hominis, TDE = time-dependent effect.
Data set [13] in a line: Cytotoxicity against human Huh-7/3-1 cells assessed as cell viability at 0.1 to 100 uM after 72 hrs by Trypan Blue exclusion test. It is filed as cell-based.
Data set [14] in a line: Cytotoxicity against human Huh-7/3-1 cells assessed as cell cycle progression at 0.02 to 50 uM after 72 hrs by flow-cytometry. It is filed as cell-based.
Data set [15] concerns Hepatitis C virus. Description: Antiviral activity against Hepatitis C virus (isolate Con1) genotype 1b in human Huh-7/3-1 cells assessed as disappearance of NS3 protein from perinuclear region at 100 nM after 96 hrs by immunostaining. It is filed as functional, organism-based. Conditions: Hepacivirus hominis.
The target of data set [16] is T1, Serine palmitoyltransferase 1 (Homo sapiens, UniProt O15269).
T1 sequence (O15269 whole entry): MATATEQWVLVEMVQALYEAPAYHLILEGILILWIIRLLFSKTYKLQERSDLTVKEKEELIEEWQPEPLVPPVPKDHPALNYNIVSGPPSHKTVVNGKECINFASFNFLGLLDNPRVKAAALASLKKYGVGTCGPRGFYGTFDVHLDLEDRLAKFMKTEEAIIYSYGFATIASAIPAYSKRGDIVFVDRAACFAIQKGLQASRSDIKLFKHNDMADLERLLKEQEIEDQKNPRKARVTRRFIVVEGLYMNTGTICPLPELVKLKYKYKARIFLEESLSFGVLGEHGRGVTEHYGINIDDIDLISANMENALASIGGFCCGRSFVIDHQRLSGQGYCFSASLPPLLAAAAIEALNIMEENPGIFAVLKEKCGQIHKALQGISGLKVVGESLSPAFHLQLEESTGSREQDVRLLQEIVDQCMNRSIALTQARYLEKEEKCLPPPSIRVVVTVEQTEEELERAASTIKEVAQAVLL
Description: Inhibition of human recombinant SPT1 activity in LCB1 transfected human HEK293 cells. It is filed as cell-based.

Data set [17] deals with Hepatitis C virus. The data set can be described thus: Antiviral activity against Hepatitis C virus (isolate Con1) genotype 1b in human Huh-7/3-1 cells assessed as reduction in NS5A protein level in golgi-derived detergent-resistant membrane at 1 uM after 72 hrs by immunoblotting analysis. It is filed as functional, organism-based. Conditions: Hepacivirus hominis.
Data set [18] has as its system Hepatitis C virus. The data set can be described thus: Antiviral activity against Hepatitis C virus (isolate Con1) genotype 1b in human Huh-7/3-1 cells assessed as reduction in NS3 protein level at 1 uM by Western blot analysis in presence of 1 uM C2-ceramide. It is filed as functional, organism-based. The settings on record: Hepacivirus hominis.
The test system of data set [19] is Hepatitis C virus. Description: Antiviral activity against Hepatitis C virus (isolate Con1) genotype 1b in human Huh-7/3-1 cells assessed as inhibition of HCV replication at 0.1 to 100 nM after 72 hrs by luciferase assay. It is filed as functional, organism-based. Conditions: Hepacivirus hominis.
Data set [20] relates to Hepatitis C virus. Description: microbe, parasite or virus in culture. Conditions: isolate Con1, Huh-7. The source holds these as a separate data set.
Description: Antiviral activity against Hepatitis C virus (isolate Con1) genotype 1b in human Huh-7/3-1 cells assessed as inhibition of SPT activity in presence of 1 uM sphinganine
For data set [21], the system named is Hepatitis C virus. Description: Antiviral activity against Hepatitis C virus (isolate Con1) genotype 1b in human Huh-7/3-1 cells assessed as decrease in replicon RNA at 0.01 to 1 uM after 72 hrs by Northern blot analysis. It is filed as functional, organism-based. Conditions: Hepacivirus hominis.
The nature of data set [22]: Cytotoxicity against human Huh-7/3-1 cells assessed as reduction in cell viability. It is filed as cell-based.
The test system of data set [23] is Hepatitis C virus. The data set can be described thus: Antiviral activity against Hepatitis C virus (isolate Con1) genotype 1b in human Huh-7/3-1 cells assessed as inhibition of HCV replication. It is filed as functional, organism-based, Hepacivirus hominis. The settings on record: isolate Con1, Huh-7.

Active and inactive are the calls of the source. The rule behind the calls is not given here.

As to `CCCCCCCCCCCC(=O)N[C@@H](CO)C[C@@H](O)c1ccccc1`, the Activity result in data set [1] is “Non-toxic”.

Regarding `CCCCCCCCCCCCCC/C=C/[C@@H](O)[C@H](CO[C@@H]1O[C@H](CO)[C@H](O)[C@H](O)[C@H]1O)NC(=O)CCCCCCCCCCCCCCCCC`, the outcome with Hepatitis C virus [2] was Active.

On to `CCCCCCCC(=O)CCCCCC/C=C/[C@H](C(=O)N[C@@H](Cc1ccc(OCC=C(C)C)cc1)C(=O)O)[C@@](O)(CC(=O)O)C(=O)O`, for which the outcome in the data set on Hepatitis C virus [3], in the data set filed under Homo sapiens, with Hepatitis C virus [5], in the data set on Hepatitis C virus [11], in the data set with Hepatitis C virus [17] and with Hepatitis C virus [18] was inactive. For the same molecule, the IC50 in the data set on Hepatitis C virus [4] was 2 nM; with Hepatitis C virus [9], above 1000 nM; in data set [16], 10 nM; in the data set on Hepatitis C virus [20] it was 33 nM. The Activity was above 50 µM in data set [6]; “tde” with Hepatitis C virus [7]; “tde” with Hepatitis C virus [8]; “tde” in the data set on Hepatitis C virus [12]; “Non-toxic” in data set [13]; “Non-toxic” in data set [14]. In addition, the Activity entry with Hepatitis C virus [19] was “Dose-dependent effect”. The result in the data set on Hepatitis C virus [10], in the data set on Hepatitis C virus [15] and with Hepatitis C virus [21] was Active.

Regarding `CCCCCCC(=O)CCCCCC/C=C/C[C@@H](O)[C@H](O)[C@@](N)(CO)C(=O)O`, the result in the data set with Hepatitis C virus [10] was Active.

For the molecule `CCCCCCCCCCCCCCCC(=O)NC(CN1CCOCC1)C(O)c1ccccc1` (stereo not given), in data set [22], the Activity was 5.3 µM. The IC50 with Hepatitis C virus [23] stood at 1200 nM.
